# Data published in patent US5807535A, “Metal complexes of hydroxyaryl containing aminocarboxylic acid chelating agents” (Australian Nuclear Science & Technology Organisation, priority 1992, dated 1998).
# Key:
# [1] = Biodistribution of 67Ga complexes in mice; type: in vivo, balb/c mice
# Description: To ligand (50 μL, 10 mg/mL, 0.2 M NaOAc, […]) was added ^67 Ga citrate (18.5 MBq) and the resultant mixture diluted to 1 mL (0.2 M NaOAc, pH 7). The pH was adjusted to 12 with 1 M NaOH (20 μL) and heated at 40° C. for 40 min. The final volume was adjusted (to 5 mL) with saline and sterilised by filtering through a 0.22 μm filter.
# Each animal was injected via tail vein with ^67 Ga complex (100 μL, ~3.7×10^5 Bq). Animals were sacrificed at various time intervals (5 animals per time point/6 time points). Data are illustrated in FIG. 26-30 and in Tables 13-17.
# Each ^67 Ga-ligand complex has been evaluated in balb/c mice. […] (see FIG. 26-30).
# [2] = Biodistribution of 99mTc complexes in mice; type: in vivo, Balb/c mice
# From the text: A series of derivatives incorporating carboxyl and phenolate donor groups (1-6) were synthesised by literature method and their radiolabelling characteristic and biological behaviour evaluated. Initial work involved an investigation of radiochemical properties of the ^99m Tc complexes of the ligands and their biodistribution in rats and mice (see Tables 1-6 and 8-12).
# A typical method of radiolabelling of the chelator was achieved by dissolving the chelator in a basic solution of saline. The pH was then adjusted to approx. 6 with HCl. Excess stannous chloride was added to the resultant solution followed by one equivalent volume of sodium ^99m TcO4 (10-50 mCi/ml). Final concentration of the chelator was approx. 1 mg/ml. The efficacy of labelling was determined by ITLC-SG. For each product only one main radiochemical species was observed. Each complex was diluted to 15 μCi/100 μl with saline. […] (See FIGS. 1A and 1B).
smiles,measurement,setting,value
O=C(O)CN(CCN(CC(=O)O)CC(=O)Nc1ccccc1O)CC(=O)Nc1ccccc1O [Compound 1],biodistribution bone,[1]; 1 min,5.07 % ID
same,biodistribution kidney,[1]; 1 min,9.28 % ID
same,biodistribution liver,[1]; 1 min,15.45 % ID
same,biodistribution muscle,[1]; 1 min,22.75 % ID
same,biodistribution skin,[1]; 1 min,11.72 % ID
same,biodistribution spleen,[1]; 1 min,0.29 % ID
same,biodistribution bone,[1]; 3 min,3.30 % ID
same,biodistribution kidney,[1]; 3 min,5.26 % ID
same,biodistribution liver,[1]; 3 min,24.21 % ID
same,biodistribution muscle,[1]; 3 min,12.70 % ID
same,biodistribution skin,[1]; 3 min,13.76 % ID
same,biodistribution spleen,[1]; 3 min,0.14 % ID
same,biodistribution bone,[1]; 5 min,2.83 % ID
same,biodistribution kidney,[1]; 5 min,4.37 % ID
same,biodistribution liver,[1]; 5 min,25.79 % ID
same,biodistribution muscle,[1]; 5 min,12.14 % ID
same,biodistribution skin,[1]; 5 min,13.02 % ID
same,biodistribution spleen,[1]; 5 min,0.1 % ID
same,biodistribution bone,[1]; 10 min,2.20 % ID
same,biodistribution kidney,[1]; 10 min,1.91 % ID
same,biodistribution liver,[1]; 10 min,22.77 % ID
same,biodistribution muscle,[1]; 10 min,26.13 % ID
same,biodistribution skin,[1]; 10 min,8.47 % ID
same,biodistribution spleen,[1]; 10 min,0.06 % ID
same,biodistribution bone,[1]; 30 min,0.50 % ID
same,biodistribution kidney,[1]; 30 min,0.57 % ID
same,biodistribution liver,[1]; 30 min,10.11 % ID
same,biodistribution muscle,[1]; 30 min,1.80 % ID
same,biodistribution skin,[1]; 30 min,1.56 % ID
same,biodistribution spleen,[1]; 30 min,0.01 % ID
same,biodistribution kidney,[1]; 120 min,0.05 % ID
same,biodistribution liver,[1]; 120 min,0.88 % ID
same,biodistribution muscle,[1]; 120 min,0.48 % ID
same,biodistribution skin,[1]; 120 min,0.24 % ID
same,biodistribution spleen,[1]; 120 min,0.01 % ID
same,biodistribution GIT,[2]; 1 min,3.82 % Injected dose
same,biodistribution bladder,[2]; 1 min,0.12 % Injected dose
same,biodistribution blood,[2]; 1 min,27.09 % Injected dose
same,biodistribution bone,[2]; 1 min,5.34 % Injected dose
same,biodistribution heart,[2]; 1 min,0.57 % Injected dose
same,biodistribution kidney,[2]; 1 min,11.78 % Injected dose
same,biodistribution liver,[2]; 1 min,12.07 % Injected dose
same,biodistribution lungs,[2]; 1 min,1.54 % Injected dose
same,biodistribution muscle,[2]; 1 min,23.48 % Injected dose
same,biodistribution skin,[2]; 1 min,19.66 % Injected dose
same,biodistribution spleen,[2]; 1 min,0.17 % Injected dose
same,biodistribution stomach,[2]; 1 min,0.5 % Injected dose
same,biodistribution tail,[2]; 1 min,2.42 % Injected dose
same,biodistribution urine,[2]; 1 min,0 % Injected dose
same,biodistribution GIT,[2]; 3 min,6.06 % Injected dose
same,biodistribution bladder,[2]; 3 min,0.63 % Injected dose
same,biodistribution blood,[2]; 3 min,12.02 % Injected dose
same,biodistribution bone,[2]; 3 min,3.1 % Injected dose
same,biodistribution heart,[2]; 3 min,0.23 % Injected dose
same,biodistribution kidney,[2]; 3 min,11.23 % Injected dose
same,biodistribution liver,[2]; 3 min,12.83 % Injected dose
same,biodistribution lungs,[2]; 3 min,0.98 % Injected dose
same,biodistribution muscle,[2]; 3 min,13.18 % Injected dose
same,biodistribution skin,[2]; 3 min,19.28 % Injected dose
same,biodistribution spleen,[2]; 3 min,0.1 % Injected dose
same,biodistribution stomach,[2]; 3 min,0.98 % Injected dose
same,biodistribution tail,[2]; 3 min,1.58 % Injected dose
same,biodistribution urine,[2]; 3 min,5.62 % Injected dose
same,biodistribution GIT,[2]; 5 min,4.77 % Injected dose
same,biodistribution bladder,[2]; 5 min,0.68 % Injected dose
same,biodistribution blood,[2]; 5 min,9.77 % Injected dose
same,biodistribution bone,[2]; 5 min,2.88 % Injected dose
same,biodistribution heart,[2]; 5 min,0.21 % Injected dose
same,biodistribution kidney,[2]; 5 min,9.17 % Injected dose
same,biodistribution liver,[2]; 5 min,11.82 % Injected dose
same,biodistribution lungs,[2]; 5 min,0.77 % Injected dose
same,biodistribution muscle,[2]; 5 min,9.81 % Injected dose
same,biodistribution skin,[2]; 5 min,19.68 % Injected dose
same,biodistribution spleen,[2]; 5 min,0.07 % Injected dose
same,biodistribution stomach,[2]; 5 min,1.02 % Injected dose
same,biodistribution tail,[2]; 5 min,3.76 % Injected dose
same,biodistribution urine,[2]; 5 min,4.51 % Injected dose
same,biodistribution GIT,[2]; 10 min,12.35 % Injected dose
same,biodistribution bladder,[2]; 10 min,1.96 % Injected dose
same,biodistribution blood,[2]; 10 min,5.34 % Injected dose
same,biodistribution bone,[2]; 10 min,5.06 % Injected dose
same,biodistribution heart,[2]; 10 min,0.12 % Injected dose
same,biodistribution kidney,[2]; 10 min,5.58 % Injected dose
same,biodistribution liver,[2]; 10 min,5.96 % Injected dose
same,biodistribution lungs,[2]; 10 min,0.48 % Injected dose
same,biodistribution muscle,[2]; 10 min,16.44 % Injected dose
same,biodistribution skin,[2]; 10 min,15.68 % Injected dose
same,biodistribution spleen,[2]; 10 min,0.06 % Injected dose
same,biodistribution stomach,[2]; 10 min,1.16 % Injected dose
same,biodistribution tail,[2]; 10 min,2.07 % Injected dose
same,biodistribution urine,[2]; 10 min,11.64 % Injected dose
same,biodistribution GIT,[2]; 30 min,20 % Injected dose
same,biodistribution bladder,[2]; 30 min,1.23 % Injected dose
same,biodistribution blood,[2]; 30 min,1.82 % Injected dose
same,biodistribution bone,[2]; 30 min,1.12 % Injected dose
same,biodistribution heart,[2]; 30 min,0.05 % Injected dose
same,biodistribution kidney,[2]; 30 min,3.19 % Injected dose
same,biodistribution liver,[2]; 30 min,3.09 % Injected dose
same,biodistribution lungs,[2]; 30 min,0.2 % Injected dose
same,biodistribution muscle,[2]; 30 min,4.98 % Injected dose
same,biodistribution skin,[2]; 30 min,7.31 % Injected dose
same,biodistribution spleen,[2]; 30 min,0.02 % Injected dose
same,biodistribution stomach,[2]; 30 min,0.49 % Injected dose
same,biodistribution tail,[2]; 30 min,1.53 % Injected dose
same,biodistribution urine,[2]; 30 min,8.84 % Injected dose
